Experimental data reported in patent US20120214760A1, “TREATMENT OF URINARY TRACT INFECTIONS WITH ANTIBACTERIAL AMINOGLYCOSIDE COMPOUNDS” (Achaogen, Inc., priority 2009, published 2012).
In brackets after ≈: the same amount, converted by molar mass. Like-named read-outs stand apart in the source and are kept apart here.

Tests used:
Assay type in all cases: cell-based
Pathogens (169 in total) = test: Susceptibility testing, all urinary tract infection isolates; conditions: all 169 isolates
Description: (§1) Minimum inhibitory concentrations (MIC) were determined by reference Clinical and Laboratory Standards Institute (CLSI) broth microdilution methods per M7-A7 [2006]. Quality control ranges utilizing E. coli ATCC 25922, P. aeruginosa ATCC 27853 and S. aureus ATCC 29213, and interpretive criteria for comparator agents were as published in CLSI M100-S17 [2007]. Briefly, serial two-fold dilutions of the test compounds were prepared at 2× concentration in Mueller Hinton Broth. The compound dilutions were mixed in 96-well assay plates in a 1:1 ratio with bacterial inoculum. The inoculum was prepared by suspension of a colony from an agar plate that was prepared the previous day. Bacteria were suspended in sterile saline and added to each assay plate to obtain a final concentration of 5×10^5 CFU/mL. The plates were incubated at 35° C. for 20 hours in ambient air.
In order to determine the activity of representative antibacterial aminoglycoside compounds against bacterial species that commonly cause complicated urinary tract infections worldwide, isolates were collected from 47 medical centers in the U.S. and Europe (10 countries) from urine or blood culture with the source of bacteremia documented as a urinary tract infection. Strains were susceptibility tested against Example 1, gentamicin, amikacin and 10 comparators by CLSI broth microdilution. These MIC assays were conducted following the same protocol as set forth in Example 110. Pathogens (169 in total) included E. coli, Klebsiella spp., Enterobacter spp., Citrobacter spp., P. mirabilis, M. Morganii, P. aeruginosa, S. aureus and S. saprophyticus.

[1] = system: E. coli ATCC 25922 (AECO001); test: MIC, CLSI broth microdilution; conditions: for MIC: Escherichia coli; for MIC AECO001: Table 3
Method in brief: (§2)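 CLSI M7-A7 broth microdilution; 2-fold serial dilutions in Mueller Hinton Broth, 1:1 with inoculum; final 5×10^5 CFU/mL; 35° C., 20 h, ambient air. QC strains E. coli ATCC 25922, P. aeruginosa ATCC 27853, S. aureus ATCC 29213.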

[2] = system: P. aeruginosa ATCC 27853 (APAE001); test: MIC, CLSI broth microdilution; conditions: Pseudomonas aeruginosa
Method in brief: as §2

[3] = system: A. calcoaceticus AACA005, AAC(6′)-I; test: MIC, aminoglycoside resistant strain; conditions: Table 3
Description: as §1
(§3) These MIC assays were conducted following the same protocol as set forth in Example 110. As shown, substituted sisomicin derivatives with groups other than methyl at the 6′-position have improved activity against strains expressing the AAC6′-modifying enzymes.

[4] = system: E. coli AECO040, AAC(6′)-I; test: MIC, aminoglycoside resistant strain; conditions: Table 3
Description: as §1, §3

[5] = system: S. marcescens ASMA003, ANT(2″) + AAC(6′); test: MIC, aminoglycoside resistant strain; conditions: Table 3
Description: as §1, §3

[6] = ATCC25922, read-out: MIC AECO001, Table 1, AECO001 is ATCC25922
[7] = ATCC27853, read-out: MIC APAE001, Table 1, APAE001 is ATCC27853
[8] = ATCC25922, Table 2, read-out: MIC E. coli
[9] = Table 1, AECO001 is ATCC25922, read-out: MIC AECO001
[10] = ATCC27853, Table 2, read-out: MIC P. aeruginosa

Structure (SMILES)	Overall susceptibility rate (Pathogens (169 in total)) [%]	MIC [1, 6] [µg/mL]	MIC AECO001 ([1]; ATCC25922) [µg/mL]	MIC [2, 7] [µg/mL]	MIC AACA005 [3] [µg/mL]	MIC AECO040 [4] [µg/mL]	MIC ASMA003 [5] [µg/mL]	MIC [1, 8] [µg/mL]	MIC [1, 9] [µg/mL]	MIC [2, 10] [µg/mL]
NCC[C@H](O)C(=O)N[C@@H]1C[C@H](N)[C@@H](O[C@H]2O[C@H](CN)[C@@H](O)[C@H](O)[C@H]2O)[C@H](O)[C@H]1O[C@H]1O[C@H](CO)[C@@H](O)[C@H](N)[C@H]1O [Amikacin, amikacin, reference compound]	94.1									
CN[C@@H]1[C@@H](O)[C@@H](O[C@@H]2[C@@H](O)[C@H](O[C@H]3OC(CNCC4CCNCC4)=CC[C@H]3N)[C@@H](N)C[C@H]2NC(=O)[C@@H](O)CCN)OC[C@]1(C)O [Example 12, 6′-(Methyl-piperidin-4-yl)-1-(4-amino-2(S)-hydroxy-butyryl)-sisomicin]		1 to 16 (≈ 1.55 to 24.8 µM)	1 (≈ 1.55 µM)	1 to 16 (≈ 1.55 to 24.8 µM)	2 (≈ 3.1 µM)	0.5 (≈ 0.774 µM)	4 (≈ 6.19 µM)			
CN[C@@H]1[C@@H](O)[C@@H](O[C@@H]2[C@@H](O)[C@H](O[C@H]3OC(CNCC4CC4)=CC[C@H]3N)[C@@H](N)C[C@H]2NC(=O)[C@@H](O)CN)OC[C@]1(C)O [Example 13, 6′-(Methyl-cyclopropyl)-1-(3-amino-2(S)-hydroxy-propionyl)-sisomicin]		1 to 16 (≈ 1.7 to 27.2 µM)	1 (≈ 1.7 µM)	> 16	2 (≈ 3.4 µM)	0.125 (≈ 0.212 µM)	2 (≈ 3.4 µM)			
CN[C@@H]1[C@@H](O)[C@@H](O[C@@H]2[C@@H](O)[C@H](O[C@H]3OC(CNCCO)=CC[C@H]3N)[C@@H](N)C[C@H]2NC(=O)[C@@H](O)CN)OC[C@]1(C)O [Example 16, 6′-(2-Hydroxy-ethyl)-1-(3-amino-2(S)-hydroxy-propionyl)-sisomicin]			1 (≈ 1.73 µM)		2 (≈ 3.46 µM)	1 (≈ 1.73 µM)	2 (≈ 3.46 µM)	< 1	< 1	1 to 16 (≈ 1.73 to 27.6 µM)
CN[C@@H]1[C@@H](O)[C@@H](O[C@@H]2[C@@H](O)[C@H](O[C@H]3OC(CNCCCN)=CC[C@H]3N)[C@@H](N)C[C@H]2NC(=O)[C@@H](O)CN)OC[C@]1(C)O [Example 17, 6′-(3-Amino-propyl)-1-(3-amino-2(S)-hydroxy-propionyl)-sisomicin]			1 (≈ 1.69 µM)		2 (≈ 3.38 µM)	0.5 (≈ 0.845 µM)	2 (≈ 3.38 µM)	< 1	< 1	1 to 16 (≈ 1.69 to 27 µM)
CN[C@@H]1[C@@H](O)[C@@H](O[C@@H]2[C@@H](O)[C@H](O[C@H]3OC(CNCC4CC4)=CC[C@H]3N)[C@@H](N)C[C@H]2NC(=O)[C@@H](O)CCN)OC[C@]1(C)O [Example 18, 6′-(Methyl-cyclopropyl)-1-(4-amino-2(S)-hydroxy-butyryl)-sisomicin]		< 1	1 (≈ 1.66 µM)	1 to 16 (≈ 1.66 to 26.5 µM)	2 (≈ 3.32 µM)	0.25 (≈ 0.415 µM)	4 (≈ 6.64 µM)			
CN[C@@H]1[C@@H](O)[C@@H](O[C@@H]2[C@@H](O)[C@H](O[C@H]3OC(CNCCCN)=CC[C@H]3N)[C@@H](N)C[C@H]2NC(=O)[C@@H](O)CCN)OC[C@]1(C)O [Example 48, 6′-(3-Amino-propyl)-1-(4-amino-2(S)-hydroxy-butyryl)-sisomicin]		< 1	1 (≈ 1.65 µM)	1 to 16 (≈ 1.65 to 26.4 µM)	2 (≈ 3.3 µM)	0.5 (≈ 0.825 µM)	2 (≈ 3.3 µM)			
CNCC1=CC[C@@H](N)[C@@H](O[C@H]2[C@H](O)[C@@H](O[C@H]3OC[C@](C)(O)[C@H](NC)[C@H]3O)[C@H](NC(=O)C3(O)CNC3)C[C@@H]2N)O1 [Example 61]		< 1	1 (≈ 1.78 µM)	1 to 16 (≈ 1.78 to 28.5 µM)	2 (≈ 3.57 µM)	16 (≈ 28.5 µM)	4 (≈ 7.13 µM)			
CNCC1=CC[C@@H](N)[C@@H](O[C@H]2C(O)[C@@H](O[C@H]3OC[C@](C)(O)[C@H](NC)[C@H]3O)[C@H](N)C[C@@H]2N)O1 (some centres unmarked) [Mono-substituted Compound 1, reference compound]			1 (≈ 2.17 µM)		2 (≈ 4.33 µM)	> 64	1 (≈ 2.17 µM)			
CN[C@@H]1[C@@H](O)[C@@H](O[C@@H]2C(O)[C@H](O[C@H]3OC(CNCC4CC4)=CC[C@H]3N)[C@@H](N)C[C@H]2N)OC[C@]1(C)O (some centres unmarked) [Mono-substituted Compound 2, reference compound]			1 (≈ 1.99 µM)		4 (≈ 7.97 µM)	1 (≈ 1.99 µM)	0.5 (≈ 0.997 µM)			
CN[C@@H]1[C@@H](O)[C@@H](O[C@@H]2C(O)[C@H](O[C@H]3OC(CNCC4CCNCC4)=CC[C@H]3N)[C@@H](N)C[C@H]2N)OC[C@]1(C)O (some centres unmarked) [Mono-substituted Compound 3, reference compound]			0.5 (≈ 0.918 µM)		0.5 (≈ 0.918 µM)	0.25 (≈ 0.459 µM)	1 (≈ 1.84 µM)			
CN[C@@H]1[C@@H](O)[C@@H](O[C@@H]2C(O)[C@H](O[C@H]3OC(CNCCCN)=CC[C@H]3N)[C@@H](N)C[C@H]2N)OC[C@]1(C)O (some centres unmarked) [Mono-substituted Compound 4, reference compound]			2 (≈ 3.96 µM)		1 (≈ 1.98 µM)	16 (≈ 31.7 µM)	1 (≈ 1.98 µM)			
CN[C@@H]1C(O)[C@@H](O[C@@H]2[C@@H](O)[C@H](OC3OC(CN)=CC[C@H]3N)[C@@H](N)C[C@H]2NC(=O)[C@@H](O)CN)OC[C@]1(C)O (some centres unmarked) [Mono-substituted Compound 5, reference compound]			0.5 (≈ 0.935 µM)		32 (≈ 59.9 µM)	8 (≈ 15 µM)	2 (≈ 3.74 µM)			
CN[C@@H]1C(O)[C@@H](O[C@@H]2[C@@H](O)[C@H](OC3OC(CN)=CC[C@H]3N)[C@@H](N)C[C@H]2NC(=O)[C@@H](O)CCN)OC[C@]1(C)O (some centres unmarked) [Mono-substituted Compound 6, reference compound]			0.5 (≈ 0.911 µM)		16 (≈ 29.2 µM)	4 (≈ 7.29 µM)	4 (≈ 7.29 µM)			
CN[C@@H]1C(O)[C@@H](O[C@@H]2[C@@H](O)[C@H](OC3OC(CN)=CC[C@H]3N)[C@@H](N)C[C@H]2NC(=O)C2(O)CNC2)OC[C@]1(C)O (some centres unmarked) [Mono-substituted Compound 7, reference compound]			1 (≈ 1.83 µM)		32 (≈ 58.5 µM)	4 (≈ 7.32 µM)	16 (≈ 29.3 µM)			
CN[C@@H]1[C@@H](O)[C@@H](O[C@@H]2[C@@H](O)[C@H](O[C@H]3OC(CN)=CC[C@H]3N)[C@@H](N)C[C@H]2N)OC[C@]1(C)O [Sisomicin, reference compound]			0.5 (≈ 1.12 µM)		32 (≈ 71.5 µM)	32 (≈ 71.5 µM)	8 (≈ 17.9 µM)			
